Where two headings read alike, the source gives them in different places.
Columns and labels:
[1] = biological target: T1, GR (Homo sapiens, UniProt P04150); assay: GR Functional Assay - NFκB Assay (A549 SPAP cells, TNFα stimulated); type: cell-based; details: for Emax: agonists, read-out: average maximum asymptote in the NFkB assay
T1 construct: endogenous in cells; host or cells: A549 (human lung carcinoma, ECACC No. 86012804), stably transfected with reporter plasmids only
T1 sequence (P04150 1-777): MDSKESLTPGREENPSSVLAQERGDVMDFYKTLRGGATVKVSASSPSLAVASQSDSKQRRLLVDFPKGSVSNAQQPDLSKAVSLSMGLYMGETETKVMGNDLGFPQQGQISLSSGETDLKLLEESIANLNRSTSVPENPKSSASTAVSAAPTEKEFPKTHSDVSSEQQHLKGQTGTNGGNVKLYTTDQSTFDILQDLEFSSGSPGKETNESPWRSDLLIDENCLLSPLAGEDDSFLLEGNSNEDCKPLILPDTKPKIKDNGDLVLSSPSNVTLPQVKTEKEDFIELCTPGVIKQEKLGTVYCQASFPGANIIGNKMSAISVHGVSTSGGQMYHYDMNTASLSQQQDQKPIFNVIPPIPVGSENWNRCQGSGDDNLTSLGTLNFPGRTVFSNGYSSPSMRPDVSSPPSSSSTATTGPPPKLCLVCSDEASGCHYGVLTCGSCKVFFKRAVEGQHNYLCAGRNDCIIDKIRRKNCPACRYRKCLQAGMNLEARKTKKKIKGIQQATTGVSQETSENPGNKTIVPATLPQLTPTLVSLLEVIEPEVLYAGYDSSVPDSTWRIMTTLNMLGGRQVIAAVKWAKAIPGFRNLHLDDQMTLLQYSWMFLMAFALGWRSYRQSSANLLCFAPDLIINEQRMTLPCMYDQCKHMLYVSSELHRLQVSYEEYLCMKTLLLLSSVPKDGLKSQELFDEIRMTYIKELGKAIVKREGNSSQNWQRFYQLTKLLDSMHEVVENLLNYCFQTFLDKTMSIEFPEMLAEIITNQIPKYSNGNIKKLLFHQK
Procedure, shortened: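 Stably transfected A549 SPAP cells at 0.16×10^6/ml in DMEM with 10% FCS were added to compound and stimulated with TNFα to drive NFκB-dependent SPAP expression. After 1 hr equilibration at room temperature, SPAP was read colorimetrically with pNPP in diethanolamine buffer, pH 9.8.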

[2] = Assay for Brain Penetrance; type: in vivo; details: brain and plasma, rat, single intravenous dose 1 mg/kg, read-out: brain to plasma ratio
Experimental: Each rat received a single intravenous dose at a level of 1 mg/kg. The dose was formulated in 10% DMSO/50% PEG200/40% sterile water. Terminal blood samples were taken at 5 or 15 mins after dosing, by cardiac puncture following anaesthesia with isofluorane. The brains were removed at the same time point.
The compounds were extracted from 20 μL plasma by protein precipitation using 120 μL acetonitrile containing an analogue compound as an internal standard. The filtered extracts were collected into a 96 well plate and were diluted with an equal volume of 10% acetonitrile containing 0.1% formic acid in water (v/v). The plate was then mixed on a plate shaker for at least 5 mins before analysis by LC-MS/MS against a calibration line prepared in control plasma.
Each brain was weighed, then homogenised in 3 ml acetonitrile:water (10:90v/v). The compounds were extracted from 200 μL of the resulting homogenate by protein precipitation using 600 μL acetonitrile containing an analogue compound as an internal standard. The extracts were centrifuged and 150 μl of each was filtered and transferred to a 96 well plate. The aliquot was diluted with 10% acetonitrile containing 0.1% formic acid in water (v/v). The plate was mixed on a plate shaker for at least 5 mins before analysis by LC-MS/MS against a calibration line prepared in control brain homogenate.

[3] = at least once in the NFkB assay, A549 SPAP cells, read-out: pIC50 in the NFkB assay (converted)
[4] = at least once, examples listed as agonists in NFkB and MMTV assays, read-out: potency pIC50 in the NFKB assay (converted)

Nc1c(C(=O)NCC(O)(CN(CCF)C(=O)c2ccccc2)C(F)(F)F)cnn1-c1ccc(F)cc1 (racemic) [Example 1 (racemic), 5-Amino-1-(4-fluorophenyl)-N-(3,3,3-trifluoro-2-{[(2-fluoroethyl)(phenylcarbonyl)amino]methyl}-2-hydroxypropyl)-1H-pyrazole-4-carboxamide]
Emax ([1]; A549 SPAP cells): ≥ 40%
IC50 [1, 3]: < 1000 nM
IC50 [1, 4]: < 316 nM
Kp at 5 min [2]: ≥ 0.1

Nc1c(C(=O)NCC(O)(CN(CCF)C(=O)c2ccccc2F)C(F)(F)F)cnn1-c1ccc(F)cc1 (racemic) [Example 2 (racemic), 5-Amino-1-(4-fluorophenyl)-N-[3,3,3-trifluoro-2-([(2-fluoroethyl)[(2-fluorophenyl)carbonyl]amino]methyl)-2-hydroxypropyl]-1H-pyrazole-4-carboxamide]
Emax ([1]; A549 SPAP cells): ≥ 40%
IC50 [1, 3]: < 1000 nM
IC50 [1, 4]: < 316 nM
Kp at 5 min [2]: ≥ 0.1

CCN(CC(O)(CNC(=O)c1cnn(-c2ccc(F)cc2)c1N)C(F)(F)F)C(=O)c1cccc(F)c1F (racemic) [Example 5 (racemic), 5-Amino-N-(2-{[[(2,3-difluorophenyl)carbonyl](ethyl)amino]methyl}-3,3,3-trifluoro-2-hydroxypropyl)-1-(4-fluorophenyl)-1H-pyrazole-4-carboxamide]
Emax ([1]; A549 SPAP cells): ≥ 40%
IC50 [1, 3]: < 1000 nM
IC50 [1, 4]: < 316 nM
Kp at 5 min [2]: ≥ 0.1

Source: US20100035926A1, “PYRAZOLE DERIVATIVES AS NON-STEROIDAL GLUCOCORTICOID RECEPTOR LIGANDS” (priority 2006, published 2010)
